Our source for the EC50 values is patent US8129368B2, “5,6-dihydro-1H-pyridin-2-one compounds” (priority 2008, dated 2012).

This experiment concerns HCV Huh-luc/neo-ET replicon cells. The experiment can be described thus: Luciferase-Based HCV Replicon Assay (EC50 (1b)). Type of experiment: cell-based. The following applies: Hepatitis C virus. The method, then:
Luciferase-Based HCV Replicon Assay Protocol (EC50 (1b))
The cell culture component of the assay is performed essentially as described by Bartenschlager et al., Hepatology 2002, 35, 694-703, wherein exponentially growing HCV Huh-luc/neo-ET replicon cells were seeded at 6×10^3 cells/well in 96 well assay plate. 24 hours later the cells were treated with various concentrations of compound or combination of compounds in triplicate using both fixed ratios and checkerboard matrices of test agents and cultured for 72 hours. The luciferase activity in the wells was determined using Bright-Glo reagent (Promega, Madison, Wis.) with a luminometer (Wallac 1420 Multilabel HTS Counter Victor 2). The background control was replicon cells treated with 100 nM BILN-2061, an inhibitor of the HCV protease. % Inhibition was determined for each compound concentration in relation to the negative (no compound) control to calculate the EC50(1b).
For orientation: A replicon is a self-replicating genome or part of one, used to study replication in cells.

The mark [1] stands for this setting: HCV Huh-luc/neo-ET replicon cells, 72 hours, luciferase activity, read-out: EC50 (1b).
Where [2] appears, read: HCV Huh-luc/neo-ET replicon cells, 72 hours, luciferase activity, read-out: EC50(1b) concentration.

Where two headings read alike, the source gives them in different places. Some results are limits rather than exact numbers.

For `CS(=O)(=O)Nc1ccc2c(c1)S(=O)(=O)NC(C1=C(O)[C@@H]3[C@H]4CC[C@H](C4)[C@@H]3N(Cc3cccc(F)c3)C1=O)=N2` [Example 21, N-{3-[(1R,2S,7R,8S)-3-(3-Fluoro-benzyl)-6-hydroxy-4-oxo-3-aza-tricyclo[6.2.1.0^2,7]undec-5-en-5-yl]-1,1-dioxo-1,2-dihydro-1λ^6-benzo[1,2,4]thiadiazin-7-yl}-methanesulfonamide], the EC50 reads like this: under setting [1], 5 to 25 nM; under setting [2], < 25 nM.

Take `CS(=O)(=O)Nc1ccc2c(c1)S(=O)(=O)NC(C1=C(O)[C@@H]3[C@@H]4CC[C@@H](C4)[C@@H]3N(CC3(C(F)(F)F)CC3)C1=O)=N2` [Example 22, N-{3-[(1S,2S,7R,8R)-6-Hydroxy-4-oxo-3-(1-trifluoromethyl-cyclopropylmethyl)-3-aza-tricyclo[6.2.1.0^2,7]undec-5-en-5-yl]-1,1-dioxo-1,2-dihydro-1λ^6-benzo[1,2,4]thiadiazin-7-yl}-methanesulfonamide]: the EC50 runs as follows: under setting [1], 5 to 25 nM; under setting [2], < 25 nM.

As for `CS(=O)(=O)Nc1ccc2c(c1)S(=O)(=O)NC(C1=C(O)[C@@H]3[C@@H]4CC[C@@H](C4)[C@@H]3N(Cc3ccc(F)c(F)c3)C1=O)=N2` [Example 23, N-{3-[(1S,2S,7R,8R)-3-(3,4-Difluoro-benzyl)-6-hydroxy-4-oxo-3-aza-tricyclo[6.2.1.0^2,7]undec-5-en-5-yl]-1,1-dioxo-1,2-dihydro-1λ^6-benzo[1,2,4]thiadiazin-7-yl}-methanesulfonamide], the EC50 (Huh-luc/neo-ET, 72 h, read-out: EC50 (1b)) was 5 to 25 nM and the EC50 (Huh-luc/neo-ET, 72 h, read-out: EC50(1b) concentration) was < 25 nM.

Regarding `CS(=O)(=O)Nc1ccc2c(c1)S(=O)(=O)NC(C1=C(O)[C@@H]3[C@H]4CC[C@H](C4)[C@@H]3N(Cc3ccc(F)c(F)c3F)C1=O)=N2` [Example 24, N-{3-[(1R,2S,7R,8S)-6-Hydroxy-4-oxo-3-(2,3,4-trifluoro-benzyl)-3-aza-tricyclo[6.2.1.0^2,7]undec-5-en-5-yl]-1,1-dioxo-1,2-dihydro-1λ^6-benzo[1,2,4]thiadiazin-7-yl}-methanesulfonamide], the EC50 was 5 to 25 nM under setting [1] and < 25 nM under setting [2].

For the molecule `CS(=O)(=O)Nc1ccc2c(c1)S(=O)(=O)NC(C1=C(O)[C@@H]3[C@H]4CC[C@H](C4)[C@@H]3N(Cc3ccsc3)C1=O)=N2` [Example 25, N-{3-[(1R,2S,7R,8S)-6-Hydroxy-4-oxo-3-thiophen-3-ylmethyl-3-aza-tricyclo[6.2.1.0^2,7]undec-5-en-5-yl]-1,1-dioxo-1,2-dihydro-1λ^6-benzo[1,2,4]thiadiazin-7-yl}-methanesulfonamide], the EC50 under setting [1] was 5 to 25 nM and the EC50 under setting [2] is < 25 nM.

Regarding `CS(=O)(=O)Nc1ccc2c(c1)S(=O)(=O)NC(C1=C(O)[C@@H]3C4CCC(CC4)[C@@H]3N(Cc3cc(F)c(F)cc3F)C1=O)=N2` [Example 26], the EC50 by setting is: under setting [1], 5 to 25 nM; under setting [2], < 25 nM.

For `CS(=O)(=O)Nc1ccc2c(c1)S(=O)(=O)NC(C1=C(O)[C@@H]3[C@H]4CC[C@H](C4)[C@@H]3N(Cc3cccs3)C1=O)=N2` [Example 27, N-{3-[(1R,2S,7R,8S)-6-Hydroxy-4-oxo-3-thiophen-2-ylmethyl-3-aza-tricyclo[6.2.1.0^2,7]undec-5-en-5-yl]-1,1-dioxo-1,2-dihydro-1λ^6-benzo[1,2,4]thiadiazin-7-yl}-methanesulfonamide], the EC50 was 5 to 25 nM under setting [1] and < 25 nM under setting [2].

For `CS(=O)(=O)Nc1ccc2c(c1)S(=O)(=O)NC(C1=C(O)[C@@H]3[C@H]4CC[C@H](C4)[C@@H]3N(CC3CCCCC3)C1=O)=N2` [Example 28], the EC50 was 5 to 25 nM under setting [1] and < 25 nM under setting [2].

Take `Cc1ccccc1CN1C(=O)C(C2=Nc3ccc(NS(C)(=O)=O)cc3S(=O)(=O)N2)=C(O)[C@@H]2[C@@H]3CC[C@@H](C3)[C@@H]21` [Example 29, N-{3-[(1S,2S,7R,8R)-6-Hydroxy-3-(2-methyl-benzyl)-4-oxo-3-aza-tricyclo[6.2.1.0^2,7]undec-5-en-5-yl]-1,1-dioxo-1,2-dihydro-1λ^6-benzo[1,2,4]thiadiazin-7-yl}-methanesulfonamide]: the EC50 is, setting by setting: under setting [1], 5 to 25 nM; under setting [2], < 25 nM.

Regarding `CS(=O)(=O)Nc1ccc2c(c1)S(=O)(=O)NC(C1=C(O)[C@@H]3[C@@H]4CC[C@@H](C4)[C@@H]3N(Cc3cccc(F)c3)C1=O)=N2` [Example 30], the EC50 is, setting by setting: under setting [1], 5 to 25 nM; under setting [2], < 25 nM.
